Test results: patent US4410516A, “1-N(αHydroxy-ω-aminoalkanoyl) derivatives of 5,3',4'-trideoxy- or 5,3', 4'-trideoxy-6'-N- methyl- or 5, 3', 4',6"-tetradeoxykannamyci B and production thereof” (Zaidan Hojin Biseibutsu Kagaku Kenkyu Kai, priority 1981, dated 1983)
In brackets after ≈: the same amount, converted by molar mass. Like-named read-outs stand apart in the source and are kept apart here.

Assays:
[1] = test system: Staphylococcus aureus 209P; assay: Minimum inhibitory concentration, serial dilution on nutrient agar; assay type: cell-based; conditions: 37° C., 18 hours incubation
[2] = test system: Staphylococcus aureus AP01; assay: as above; assay type: cell-based; conditions: 37° C., 18 hours incubation
[3] = test system: Bacillus subtilis NRRL B-558; assay: as above; assay type: cell-based; conditions: NRRLB558, 37° C., 18 hours incubation
Escherichia coli NIHJ = assay: as above; assay type: cell-based
Escherichia coli K-12 = assay: as above; assay type: cell-based
Escherichia coli K-12 R5 = assay: as above; assay type: cell-based; conditions: K12R5, 18 h
[4] = test system: Escherichia coli K-12 R 388; assay: as above; assay type: cell-based; conditions: K12R388, 18 h
[5] = test system: Escherichia coli K-12 ML 1410; assay: as above; assay type: cell-based
[6] = test system: Escherichia coli K-12 LA 290 R55; assay: as above; assay type: cell-based; conditions: K12LA290R55, 18 h
[7] = test system: Escherichia coli K-12 LA 290 R56; assay: as above; assay type: cell-based; conditions: K12LA290R56, 18 h
[8] = test system: Escherichia coli JR66/W677; assay: as above; assay type: cell-based
Proteus vulgaris OX19 = assay: as above; assay type: cell-based; conditions: 37° C., 18 hours incubation
Proteus rettgeri GN311 = assay: as above; assay type: cell-based; conditions: Providencia rettgeri, 37° C., 18 hours incubation
Serratia marcescens = assay: as above; assay type: cell-based; conditions: 37° C., 18 hours incubation
Serratia SOU = assay: as above; assay type: cell-based; conditions: 37° C., 18 hours incubation
Providencia 2991 = assay: as above; assay type: cell-based; conditions: 37° C., 18 hours incubation
[9] = test system: Pseudomonas aeruginosa A3; assay: as above; assay type: cell-based; conditions: 37° C., 18 hours incubation
[10] = test system: Pseudomonas aeruginosa TI-13; assay: as above; assay type: cell-based
[11] = test system: Pseudomonas aeruginosa GN315; assay: as above; assay type: cell-based
[12] = test system: Pseudomonas aeruginosa 99; assay: as above; assay type: cell-based
[13] = test system: Pseudomonas aeruginosa B-13; assay: as above; assay type: cell-based; conditions: B13, 37° C., 18 hours incubation
[14] = test system: Pseudomonas aeruginosa 21-75; assay: as above; assay type: cell-based; conditions: 2175, 37° C., 18 hours incubation
[15] = test system: Pseudomonas aeruginosa PST1; assay: as above; assay type: cell-based; conditions: PST1, nutrient agar, 37° C., 18 hours incubation, read-out: MIC
[16] = test system: Pseudomonas aeruginosa ROS134/PU21; assay: as above; assay type: cell-based; conditions: ROS134/PU21, 18 h
[17] = test system: Pseudomonas maltophilia GN907; assay: as above; assay type: cell-based; conditions: Stenotrophomonas maltophilia, 37° C., 18 hours incubation
[18] = test system: Escherichia coli K-12 ML 1410 R81; assay: as above; assay type: cell-based; conditions: 18 h
bacteria = conditions: in words, earlier work / other filings; cited from earlier work
[19] = nutrient agar, 37° C., 18 hours incubation, read-out: MIC
[20] = K12, nutrient agar, 37° C., 18 hours incubation, read-out: MIC
[21] = GN315, nutrient agar, 37° C., 18 hours incubation, read-out: MIC
[22] = Pseudomonas aeruginosa, 99, 18 h

`C[C@H]1O[C@H](O[C@@H]2C[C@H](O[C@H]3O[C@H](CN)CC[C@H]3N)[C@@H](N)C[C@H]2NC(=O)[C@@H](O)CCN)[C@H](O)[C@@H](N)[C@@H]1O` [AHB-tetradeoxyKMB, 1-N-[(S)-4-amino-2-hydroxybutyryl]-5,3',4',6"-tetradeoxykanamycin B] gave an MIC [1] of less than 0.2 mg/L, an MIC [2] of 0.78 mg/L (≈ 1.5 µM) and an MIC [3] of less than 0.2 mg/L. The MIC (Escherichia coli NIHJ; [19]) was 0.78 mg/L (≈ 1.5 µM), the MIC (Escherichia coli K-12; [20]) was 0.78 mg/L (≈ 1.5 µM) and the MIC (Escherichia coli K-12 R5) was 50 mg/L (≈ 96 µM). For the same molecule, the MIC [4] was 0.39 mg/L (≈ 0.749 µM), the MIC ([5]; K12ML1410, 18 h) was 1.56 mg/L (≈ 3 µM) and the MIC [6] was 1.56 mg/L (≈ 3 µM). The MIC [7] was 0.39 mg/L (≈ 0.749 µM), the MIC ([8]; JR66/W677, 18 h) was 1.56 mg/L (≈ 3 µM) and the MIC (Proteus vulgaris OX19) was 0.39 mg/L (≈ 0.749 µM). The MIC (Proteus rettgeri GN311) was 25 mg/L (≈ 48 µM), the MIC (Serratia marcescens) was 25 mg/L (≈ 48 µM) and the MIC (Serratia SOU) was 100 mg/L (≈ 192 µM). The MIC (Providencia 2991) was 25 mg/L (≈ 48 µM), the MIC [9] was 0.78 mg/L (≈ 1.5 µM) and the MIC ([10]; TI13, 18 h) was 3.13 mg/L (≈ 6.01 µM). It also gave an MIC [11, 21] of 100 mg/L (≈ 192 µM), an MIC ([12]; Pseudomonas aeruginosa, 99, nutrient agar, 37° C., 18 hours incubation, read-out: MIC) of 6.25 mg/L (≈ 12 µM) and an MIC [13] of 12.5 mg/L (≈ 24 µM). For the same molecule, the MIC [14] was 12.5 mg/L (≈ 24 µM), the MIC [15] was 6.25 mg/L (≈ 12 µM) and the MIC [16] was 100 mg/L (≈ 192 µM). It also gave an MIC [17] greater than 100 mg/L.
Molecule `NCC[C@H](O)C(=O)N[C@@H]1C[C@H](N)[C@@H](O[C@H]2O[C@H](CN)CC[C@H]2N)C[C@H]1O[C@H]1O[C@H](CO)[C@@H](O)[C@H](N)[C@H]1O` [AHB-trideoxyKMB, 1-N-[(S)-4-amino-2-hydroxybutyryl]-5,3',4'-trideoxykanamycin B] has an MIC [1] of less than 0.2 mg/L, an MIC [2] of 0.39 mg/L (≈ 0.727 µM) and an MIC [3] of less than 0.2 mg/L. It also gave an MIC (Escherichia coli NIHJ; [19]) of 0.78 mg/L (≈ 1.45 µM), an MIC (Escherichia coli K-12; [20]) of 0.78 mg/L (≈ 1.45 µM) and an MIC (Escherichia coli K-12 R5) of 100 mg/L (≈ 186 µM). For the same molecule, the MIC [4] was 0.78 mg/L (≈ 1.45 µM), the MIC ([5]; K12ML1410, nutrient agar, 37° C., 18 hours incubation, read-out: MIC) was 1.56 mg/L (≈ 2.91 µM) and the MIC [18] was 1.56 mg/L (≈ 2.91 µM). The MIC [6] was 3.13 mg/L (≈ 5.83 µM), the MIC [7] was 0.78 mg/L (≈ 1.45 µM) and the MIC ([8]; JR66/W677, nutrient agar, 37° C., 18 hours incubation, read-out: MIC) was 1.56 mg/L (≈ 2.91 µM). For the same molecule, the MIC (Proteus vulgaris OX19) was 0.39 mg/L (≈ 0.727 µM), the MIC (Proteus rettgeri GN311) was 25 mg/L (≈ 46.6 µM) and the MIC (Serratia marcescens) was 25 mg/L (≈ 46.6 µM). The MIC (Serratia SOU) was 100 mg/L (≈ 186 µM), the MIC (Providencia 2991) was 6.25 mg/L (≈ 11.6 µM) and the MIC [9] was 0.39 mg/L (≈ 0.727 µM). It also gave an MIC ([10]; TI13, 18 h) of 3.13 mg/L (≈ 5.83 µM), an MIC [11, 21] of 25 mg/L (≈ 46.6 µM) and an MIC [12, 22] of 3.13 mg/L (≈ 5.83 µM). It also gave an MIC [13] of 6.25 mg/L (≈ 11.6 µM), an MIC [14] of 6.25 mg/L (≈ 11.6 µM) and an MIC [15] of 6.25 mg/L (≈ 11.6 µM). The MIC [16] was greater than 100 mg/L and the MIC [17] was greater than 100 mg/L.
With `CNC[C@@H]1CC[C@@H](N)[C@@H](O[C@H]2C[C@@H](O[C@H]3O[C@H](CO)[C@@H](O)[C@H](N)[C@H]3O)[C@H](NC(=O)[C@@H](O)CCCN)C[C@@H]2N)O1` [AHV-trideoxyMKMB, 1-N-[(S)-5-amino-2-hydroxyvaleryl]-5,3',4'-trideoxy-6'-N-methylkanamycin B] the MIC [1] was 0.2 mg/L (≈ 0.354 µM), the MIC [2] was 0.39 mg/L (≈ 0.691 µM) and the MIC [3] was less than 0.2 mg/L. The MIC (Escherichia coli NIHJ; 18 h) was 1.56 mg/L (≈ 2.76 µM), the MIC (Escherichia coli K-12; K12, 18 h) was 1.56 mg/L (≈ 2.76 µM) and the MIC (Escherichia coli K-12 R5) was 6.25 mg/L (≈ 11.1 µM). The MIC [4] was 1.56 mg/L (≈ 2.76 µM), the MIC ([5]; K12ML1410, 18 h) was 3.13 mg/L (≈ 5.54 µM) and the MIC [18] was 3.13 mg/L (≈ 5.54 µM). It also gave an MIC [6] of 3.13 mg/L (≈ 5.54 µM), an MIC [7] of 1.56 mg/L (≈ 2.76 µM) and an MIC ([8]; JR66/W677, 18 h) of 3.13 mg/L (≈ 5.54 µM). It also gave an MIC (Proteus vulgaris OX19) of 0.78 mg/L (≈ 1.38 µM), an MIC (Proteus rettgeri GN311) of 100 mg/L (≈ 177 µM) and an MIC (Serratia marcescens) of 12.5 mg/L (≈ 22.1 µM). The MIC (Serratia SOU) was 50 mg/L (≈ 88.5 µM), the MIC (Providencia 2991) was 25 mg/L (≈ 44.3 µM) and the MIC [9] was 0.39 mg/L (≈ 0.691 µM). The MIC ([10]; TI13, 18 h) was 1.56 mg/L (≈ 2.76 µM), the MIC ([11]; GN315, 18 h) was 3.13 mg/L (≈ 5.54 µM) and the MIC [12, 22] was 6.25 mg/L (≈ 11.1 µM). It also gave an MIC [13] of 12.5 mg/L (≈ 22.1 µM), an MIC [14] of 12.5 mg/L (≈ 22.1 µM) and an MIC [15] of 12.5 mg/L (≈ 22.1 µM). It also gave an MIC [16] of 50 mg/L (≈ 88.5 µM) and an MIC [17] greater than 100 mg/L.
With `NCC[C@H](O)C(=O)N[C@@H]1C[C@H](N)[C@@H](O[C@H]2O[C@H](CN)CC[C@H]2N)[C@H](O)[C@H]1O[C@H]1O[C@H](CO)[C@@H](O)[C@H](N)[C@H]1O` [Habekacin, 1-N-[(S)-4-amino-2-hydroxybutyryl]-3',4'-dideoxykanamycin B, reference compound] the MIC [1] was 0.39 mg/L (≈ 0.706 µM), the MIC [2] was 0.78 mg/L (≈ 1.41 µM) and the MIC [3] was less than 0.2 mg/L. It also gave an MIC (Escherichia coli NIHJ; [19]) of 3.13 mg/L (≈ 5.66 µM), an MIC (Escherichia coli K-12; [20]) of 3.13 mg/L (≈ 5.66 µM) and an MIC (Escherichia coli K-12 R5) of 100 mg/L (≈ 181 µM). The MIC [4] was 1.56 mg/L (≈ 2.82 µM), the MIC ([5]; K12ML1410, 18 h) was 6.25 mg/L (≈ 11.3 µM) and the MIC [6] was 6.25 mg/L (≈ 11.3 µM). For the same molecule, the MIC [7] was 3.13 mg/L (≈ 5.66 µM), the MIC ([8]; JR66/W677, 18 h) was 6.25 mg/L (≈ 11.3 µM) and the MIC (Proteus vulgaris OX19) was 0.78 mg/L (≈ 1.41 µM). The MIC (Proteus rettgeri GN311) was 50 mg/L (≈ 90.5 µM), the MIC (Serratia marcescens) was 50 mg/L (≈ 90.5 µM) and the MIC (Serratia SOU) was greater than 100 mg/L. The MIC (Providencia 2991) was 50 mg/L (≈ 90.5 µM), the MIC [9] was 3.13 mg/L (≈ 5.66 µM) and the MIC ([10]; TI13, nutrient agar, 37° C., 18 hours incubation, read-out: MIC) was 3.13 mg/L (≈ 5.66 µM). It also gave an MIC ([11]; GN315, 18 h) of 6.25 mg/L (≈ 11.3 µM), an MIC [12, 22] of 6.25 mg/L (≈ 11.3 µM) and an MIC [13] of 25 mg/L (≈ 45.2 µM). It also gave an MIC [14] of 25 mg/L (≈ 45.2 µM), an MIC [15] of 25 mg/L (≈ 45.2 µM) and an MIC [16] greater than 100 mg/L. For the same molecule, the MIC [17] was greater than 100 mg/L and the antibacterial activity (bacteria) was “effective against dibekacin-resistant bacteria”.
